Data reported in patent EP3046573B1, “AMYLIN ANALOGUES” (Zealand Pharma A/S, priority 2013, dated 2015).
Numbered stars: 1 amine (or outer) side, 2 acyl side, 3 side chain; on linkers, the order of the positions; unused ones are H or OH. Bridge positions count the residues as written; N and C are the ends. Square brackets hold non-standard residues; d marks the D form. Peptide text beside a SMILES is read from it. * marks the point of attachment. C20 diacid = O=C(O)CCCCCCCCCCCCCCCCCCC(=O)*; γGlu = O=C(O)[C@H](CCC(=O)[*:2])N[*:1]; NMeI = CC[C@H](C)[C@H](NC)C(=O)O; Sar = CNCC(=O)O

Columns and labels:
[1] = target: T1, human calcitonin receptor (hCTR2) (Homo sapiens, UniProt P30988); assay: hCTR2 assay: induction of cAMP (AlphaScreen cAMP Assay kit) in COS7 cells expressing hCTR2; format: cell-based; conditions: cAMP induction in COS7 cells expressing hCTR2; average of a minimum of 3 determinations; read-out: hCTR2 EC50
T1 construct: expressed in transfected cells
T1 sequence (P30988 25-474): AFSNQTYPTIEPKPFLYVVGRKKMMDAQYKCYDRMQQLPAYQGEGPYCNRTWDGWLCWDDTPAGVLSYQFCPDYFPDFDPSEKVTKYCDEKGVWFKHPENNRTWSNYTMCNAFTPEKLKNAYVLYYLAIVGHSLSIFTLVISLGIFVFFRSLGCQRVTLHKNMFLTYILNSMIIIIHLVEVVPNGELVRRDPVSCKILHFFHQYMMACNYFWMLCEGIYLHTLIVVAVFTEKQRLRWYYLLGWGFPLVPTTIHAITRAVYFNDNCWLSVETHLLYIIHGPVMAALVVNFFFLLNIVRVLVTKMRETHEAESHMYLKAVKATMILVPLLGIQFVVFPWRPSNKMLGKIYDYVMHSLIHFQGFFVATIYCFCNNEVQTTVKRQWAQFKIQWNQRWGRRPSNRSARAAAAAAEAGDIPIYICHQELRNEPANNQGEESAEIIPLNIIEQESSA
Method in brief: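 Stable RAMP-naive COS7 clone expressing hCTR2 was stimulated with increasing peptide concentrations in Tyrode buffer (pH 7.4) with 100 µM IBMX and 0.1% casein for 15 min at 37° C. Cells were lysed and cAMP measured by AlphaScreen. EC50 and efficacy relative to pramlintide came from 4PL curve fits.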

[2] = Solubility assessment (turbidity absorbance at 325 nm); format: physicochemical; conditions: stock 2 mg/ml diluted 1:1, ambient temperature (typically 25°C), n=1; for Solubility, Acetate buffer pH 4: 100 mM acetate buffer pH 4.0; for Solubility, Acetate buffer pH 5: 100 mM acetate buffer pH 5.0; for Solubility, Histidine buffer pH 6: 100 mM histidine buffer pH 6.0; for Solubility, Histidine buffer pH 7: 100 mM histidine buffer pH 7.0; for Solubility, Phosphate buffer pH 6: 100 mM phosphate buffer pH 6.0; for Solubility, Phosphate buffer pH 7: 100 mM phosphate buffer pH 7.0; for Solubility, Phosphate buffer pH 7.5: 100 mM phosphate buffer pH7.5
Method in brief: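 Peptide stock (2 mg/ml, water pH 2.5) diluted 1:1 into 100 mM acetate (pH 4.0, 5.0), histidine (pH 6.0, 7.0) or phosphate (pH 6.0–7.5) buffer; absorbance at 325 nm read at about 25°C, n=1. A325 ≤ 0.02 taken as solubility ≥ 1 mg/ml.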

Row | SMILES | EC50 [1] [nM] | Solubility, Acetate buffer pH 4 [2] | Solubility, Acetate buffer pH 5 [2] | Solubility, Histidine buffer pH 6 [2] | Solubility, Histidine buffer pH 7 [2] | Solubility, Phosphate buffer pH 6 [2] | Solubility, Phosphate buffer pH 7 [2] | Solubility, Phosphate buffer pH 7.5 [2]
1 | CC[C@H](C)[C@@H](C(=O)N[C@@H](CC(C)C)C(=O)N[C@@H](CO)C(=O)N[C@@H](CO)C(=O)N[C@H](C(=O)N[C@@H](CC(=O)O)C(=O)N[C@H](C(=O)NCC(=O)N[C@@H](CO)C(=O)N[C@@H](CCC(=O)O)C(=O)N[C@H](C(=O)N1CCC[C@H]1C(N)=O)[C@@H](C)O)C(C)C)[C@@H](C)O)N(C)C(=O)CN(C)C(=O)[C@H](Cc1ccccc1)NC(=O)[C@H](CO)NC(=O)[C@H](CO)NC(=O)[C@H](CO)NC(=O)[C@H](CO)NC(=O)[C@H](CCCNC(=N)N)NC(=O)[C@H](Cc1c[nH]cn1)NC(=O)[C@H](CC(C)C)NC(=O)[C@H](Cc1ccccc1)NC(=O)[C@H](CCC(=O)O)NC(=O)[C@H](C)NC(=O)[C@H](CC(C)C)NC(=O)[C@H](CCCNC(=N)N)NC(=O)[C@H](CCC(N)=O)NC(=O)[C@@H](NC(=O)[C@H](C)NC(=O)[C@@H]1CSSC[C@H](NC(=O)[C@H](CCCNC(=N)N)NC(=O)CC[C@H](NC(=O)CCCCCCCCCCCCCCCCCCC(=O)O)C(=O)O)C(=O)N[C@@H](CC(N)=O)C(=O)N[C@@H]([C@@H](C)O)C(=O)N[C@@H](C)C(=O)N[C@@H]([C@@H](C)O)C(=O)N1)[C@@H](C)O [Compound 75, [19CD]-isoGlu-RC()NTATC()ATQRLAEFLHRSSSSF-Gly(Me)-Ile(Me)-LSSTDVGSETP-NH2] ({C20 diacid-γGlu}-RCNTATCATQRLAEFLHRSSSSF[Sar][NMeI]LSSTDVGSETP-NH2; disulfide 2-7) | 0.11 | SS (SS indicates solubility ≥ 1mg/ml) | II (II indicates solubility ≤ 1 mg/ml) | II (II indicates solubility ≤ 1 mg/ml) | SS (SS indicates solubility ≥ 1mg/ml) | SS (SS indicates solubility ≥ 1mg/ml) | SS (SS indicates solubility ≥ 1mg/ml) | SS (SS indicates solubility ≥ 1mg/ml)
2 | CC[C@H](C)[C@@H](C(=O)N[C@@H](CC(C)C)C(=O)N[C@@H](CO)C(=O)N[C@@H](CO)C(=O)N[C@H](C(=O)N[C@@H](CCC(=O)O)C(=O)N[C@H](C(=O)NCC(=O)N[C@@H](CO)C(=O)N[C@@H](CC(=O)O)C(=O)N[C@H](C(=O)N1CCC[C@H]1C(N)=O)[C@@H](C)O)C(C)C)[C@@H](C)O)N(C)C(=O)[C@H](C)NC(=O)CN(C)C(=O)[C@H](Cc1ccccc1)NC(=O)[C@H](CO)NC(=O)[C@H](CO)NC(=O)[C@H](CCCNC(=N)N)NC(=O)[C@H](Cc1c[nH]cn1)NC(=O)[C@H](CC(C)C)NC(=O)[C@H](Cc1ccccc1)NC(=O)[C@H](CCC(=O)O)NC(=O)[C@H](C)NC(=O)[C@H](CC(C)C)NC(=O)[C@H](CCCNC(=N)N)NC(=O)[C@H](CCC(N)=O)NC(=O)[C@@H](NC(=O)[C@H](C)NC(=O)[C@@H]1CSSC[C@H](NC(=O)[C@H](CCCNC(=N)N)NC(=O)CC[C@H](NC(=O)CCCCCCCCCCCCCCCCCCC(=O)O)C(=O)O)C(=O)N[C@@H](CC(N)=O)C(=O)N[C@@H]([C@@H](C)O)C(=O)N[C@@H](C)C(=O)N[C@@H]([C@@H](C)O)C(=O)N1)[C@@H](C)O [Compound 78, [19CD]-isoGlu-RC()NTATC()ATQRLAEFLHRSSF-Gly(Me)-A-Ile(Me)-LSSTEVGSDTP-NH2] ({C20 diacid-γGlu}-RCNTATCATQRLAEFLHRSSF[Sar]A[NMeI]LSSTEVGSDTP-NH2; disulfide 2-7) | 0.07 | SS (SS indicates solubility ≥ 1mg/ml) | SS (SS indicates solubility ≥ 1mg/ml) | SS (SS indicates solubility ≥ 1mg/ml) | SS (SS indicates solubility ≥ 1mg/ml) | SS (SS indicates solubility ≥ 1mg/ml) | SS (SS indicates solubility ≥ 1mg/ml) | SS (SS indicates solubility ≥ 1mg/ml)
3 | CC[C@H](C)[C@@H](C(=O)N[C@@H](CC(C)C)C(=O)N[C@@H](CO)C(=O)N[C@@H](CO)C(=O)N[C@H](C(=O)N[C@@H](CCC(=O)O)C(=O)N[C@H](C(=O)NCC(=O)N[C@@H](CO)C(=O)N[C@@H](CC(=O)O)C(=O)N[C@H](C(=O)N1CCC[C@H]1C(N)=O)[C@@H](C)O)C(C)C)[C@@H](C)O)N(C)C(=O)CN(C)C(=O)[C@H](Cc1ccccc1)NC(=O)[C@H](CO)NC(=O)[C@H](CO)NC(=O)[C@H](CCCNC(=N)N)NC(=O)[C@H](Cc1c[nH]cn1)NC(=O)[C@H](CC(C)C)NC(=O)[C@H](Cc1ccccc1)NC(=O)[C@H](CCC(=O)O)NC(=O)[C@H](C)NC(=O)[C@H](CC(C)C)NC(=O)[C@H](CCCNC(=N)N)NC(=O)[C@H](CCC(N)=O)NC(=O)[C@@H](NC(=O)[C@H](C)NC(=O)[C@@H]1CSSC[C@H](NC(=O)[C@H](CCCNC(=N)N)NC(=O)CC[C@H](NC(=O)CCCCCCCCCCCCCCCCCCC(=O)O)C(=O)O)C(=O)N[C@@H](CC(N)=O)C(=O)N[C@@H]([C@@H](C)O)C(=O)N[C@@H](C)C(=O)N[C@@H]([C@@H](C)O)C(=O)N1)[C@@H](C)O [Compound 79, [19CD]-isoGlu-RC()NTATC()ATQRLAEFLHRSSF-Gly(Me)-Ile(Me)-LSSTEVGSDTP-NH2] ({C20 diacid-γGlu}-RCNTATCATQRLAEFLHRSSF[Sar][NMeI]LSSTEVGSDTP-NH2; disulfide 2-7) | 0.1 | SS (SS indicates solubility ≥ 1mg/ml) | SS (SS indicates solubility ≥ 1mg/ml) | SS (SS indicates solubility ≥ 1mg/ml) | SS (SS indicates solubility ≥ 1mg/ml) | SS (SS indicates solubility ≥ 1mg/ml) | SS (SS indicates solubility ≥ 1mg/ml) | SS (SS indicates solubility ≥ 1mg/ml)
4 | CC[C@H](C)[C@@H](C(=O)N[C@@H](CC(C)C)C(=O)N[C@@H](CO)C(=O)N[C@@H](CO)C(=O)N[C@H](C(=O)N[C@@H](CC(=O)O)C(=O)N[C@H](C(=O)NCC(=O)N[C@@H](CO)C(=O)N[C@@H](CCC(=O)O)C(=O)N[C@H](C(=O)N1CCC[C@H]1C(N)=O)[C@@H](C)O)C(C)C)[C@@H](C)O)N(C)C(=O)[C@H](C)NC(=O)CN(C)C(=O)[C@H](Cc1ccccc1)NC(=O)[C@H](CO)NC(=O)[C@H](CO)NC(=O)[C@H](CCCNC(=N)N)NC(=O)[C@H](Cc1c[nH]cn1)NC(=O)[C@H](CC(C)C)NC(=O)[C@H](Cc1ccccc1)NC(=O)[C@H](CCC(=O)O)NC(=O)[C@H](C)NC(=O)[C@H](CC(C)C)NC(=O)[C@H](CCCNC(=N)N)NC(=O)[C@H](CCC(N)=O)NC(=O)[C@@H](NC(=O)[C@H](C)NC(=O)[C@@H]1CSSC[C@H](NC(=O)[C@H](CCCNC(=N)N)NC(=O)CC[C@H](NC(=O)CCCCCCCCCCCCCCCCCCC(=O)O)C(=O)O)C(=O)N[C@@H](CC(N)=O)C(=O)N[C@@H]([C@@H](C)O)C(=O)N[C@@H](C)C(=O)N[C@@H]([C@@H](C)O)C(=O)N1)[C@@H](C)O [Compound 80, [19CD]-isoGlu-RC()NTATC()ATQRLAEFLHRSSF-Gly(Me)-A-Ile(Me)-LSSTDVGSETP-NH2] ({C20 diacid-γGlu}-RCNTATCATQRLAEFLHRSSF[Sar]A[NMeI]LSSTDVGSETP-NH2; disulfide 2-7) | 0.062 | SS (SS indicates solubility ≥ 1mg/ml) | SS (SS indicates solubility ≥ 1mg/ml) | II (II indicates solubility ≤ 1 mg/ml) | SS (SS indicates solubility ≥ 1mg/ml) | SS (SS indicates solubility ≥ 1mg/ml) | SS (SS indicates solubility ≥ 1mg/ml) | SS (SS indicates solubility ≥ 1mg/ml)
